Data reported in US20250188091A1, “PYRIDONE COMPOUND HAVING INTEGRASE INHIBITORY ACTIVITY AND PHARMACEUTICAL USE THEREOF” (priority 2021, published 2025).
Where two headings read alike, the source gives them in different places.

Columns and labels:
[1] = test system: human immunodeficiency virus type 1 IIIB strain (HIV-1IIIB); test: Cell protection assay against HIV infection (MT-4 cells, XTT); assay type: cell-based; settings: for CC50/EC50: MT-4 cells, HIV-1IIIB
Method: The protective effect of the test compound on MT-4 cells infected by human immunodeficiency virus type 1 IIIB strain (HIV-1IIIB) at different concentrations was evaluated.
The test compound was dissolved in DMSO at a concentration of 10 mM and stored at −20° C.
2) Test of the anti-HIV-1 IIIB infection activity of the compound: A starting concentration of 10 nM was used, and five serial five-fold dilutions were carried out on the compound. Each compound was present in the test medium at a concentration 2 folds of the final desired test concentration. 100 microliters (100 μL) of the solution of each concentration was added to triplicate wells for efficacy evaluation, and each concentration was added one well for colorimetric evaluation. AZT was purchased from Sigma Aldrich (St. Louis, MO, USA), and evaluated as a control compound in the antiviral assay.
(§1) Cell culture: MT-4 cells were passaged in a T-75 flask before use in the antiviral assay. On the day before the assay, cells were passaged in aliquots at a 1:2 ratio to ensure that they were in the exponential growth phase at the time of infection. Total cells and viable cells were quantified using a hemocytometer and trypan blue dye. The proportion of viable cells used for the assay was greater than 95%. The cells were resuspended in tissue culture medium at 5×10^4 cells per milliliter, and the resulting suspension was added to a drug-containing microtiter plate in a volume of 50 μL.
Virus preparation: The virus used for this assay was lymphotropic virus strain HIV-1IIIB. The viruses were amplified in CEM-SS cells for the preparation of virus stock solution. The pre-titered virus aliquot tube was taken from the refrigerator (−80° C.), and slowly thawed to room temperature in a biosafety cabinet. The viruses were diluted in the tissue culture medium. 50 μl of the diluted virus would produce 85% to 95% cell killing 6 days after infection. 50 μL of the diluted virus was added immediately to the microtiter plate containing cells and drugs.
(§2) Evaluation of the efficacy and toxicity of the compound with XTT: After culturing for six days in a 37° C., 5% CO2 incubator, tetrazolium dye XTT (2,3-bis(2-methoxy-4-nitro-5-sulfophenyl)-5-[(phenylamino)carbonyl]-2H-tetrazolium hydroxide) was added to the cell culture plate to conduct the test. The XTT solution was a 1 mg/ml RPMI1640 stock solution prepared on the same day. Phenazine methyl sulfate (PMS) solution at a concentration of 0.15 mg/ml was prepared in PBS, and stored in the dark at −20° C. XTT/PMS stock solution was prepared before use by adding 40 μl of PMS per milliliter of XTT solution. […] of XTT/PMS was added to each well of the plate, and the plate was re-incubated for 4 hours at 37° C. The plate was sealed with adhesive plate sealant, and gently shaked or inverted several times to mix the soluble formazan product. The absorbance was read at 450/650 nm.

[2] = test system: HIV-1 subtype A RW/92/009; test: Inhibitory activity against clinical HIV-1 strain RW/92/009 in PBMC; assay type: cell-based; settings: for EC50: read-out: hPBMC/HIV-1 EC50; for EC90: read-out: hPBMC/HIV-1 EC90
Method: (§3) Preparation of virus: Clinical HIV-1 virus strains (Table 3) were obtained from the US NIH AIDS Research and Reference Reagent Library. PBMC were extracted from three fresh blood samples that were HIV and HBV seronegative, mixed and cultured, and PHA-P (phytohemagglutinin) was added to stimulate activation. The cells and virus were incubated at 37° C./5% CO2, and the cell culture supernatant after infection was collected and stored frozen at −80° C. Each viral titer was titrated in pooled PBMCs from three donors.
(§4) Assay of antiviral activity of compounds: Frozen PBMCs were resuspended in fresh culture medium (1×10^6 cells/mL), and added to a round-bottom 96-well plate ([…]). 100 μl of culture medium containing 2 times the final concentration of the compound was added to each well, and then 50 μL of virus solution was added (the final infection dose was MOI=0.002). After 7 days of culture, the reverse transcriptase activity in the supernatant was determined to evaluate HIV-1 replication. At the same time, a 96-well culture plate with only compounds and cells was prepared for the assay of compound cytotoxicity.

MT-4 cells = test: Test of cytotoxicity of the compound (MT-4 cells, XTT); assay type: cell-based; settings: 6 days
Method: (§5) 1) Test of cytotoxicity of the compound: The test compound was evaluated using a starting concentration of 100 nM and five serial half-log dilutions. Each compound was present in the test medium at a concentration 2 folds of the final desired test concentration. The compound was diluted to 1 mM in DMSO. The compound was then diluted to 200 nM in a drug dilution tube containing 998 μL of test medium (adding 2 μL of 1 mM stock). […] of the 200 nM solution was transferred into 680 μL of the test medium (half-log dilution), and a total of five serial dilutions were carried out. 100 microliters (100 μL) of the solution of each concentration was added to duplicate wells for cytotoxicity evaluation, and each concentration was added to one well for colorimetric evaluation.
as §1, §2

[3] = test system: HIV-1 subtype D UG/92/001; test: Inhibitory activity against clinical HIV-1 strain UG/92/001 in PBMC; assay type: cell-based; settings: for EC50: read-out: hPBMC/HIV-1 EC50; for EC90: read-out: hPBMC/HIV-1 EC90
Method: as §3, §4

[4] = test system: HIV-1 subtype C MW/93/959; test: Inhibitory activity against clinical HIV-1 strain MW/93/959 in PBMC; assay type: cell-based; settings: for EC50: read-out: hPBMC/HIV-1 EC50; for EC90: read-out: hPBMC/HIV-1 EC90
Method: as §3, §4

[5] = test system: HIV-1 integrase Q148R/N155H pseudovirus; test: Pseudovirus-based assay of anti-HIV-1 activity, Q148R/N155H strain; assay type: cell-based; settings: HEK-293T, 72 h
Method: (§6) The inhibitory activity against pseudoviruses containing common clinical mutation sites of HIV-1 integrase (G140S/Q148R, Q148R/N155H, E138K, Q148H, R263K and Y143R/Q148H) was determined.
(§7) Preparation of pseudovirus: Using the lentiviral plasmid pNL4-3-Luc-RE (HedgehogBio) as the backbone, an integrase point mutation plasmid was constructed. HEK293T cells (ATCC) were seeded in a 6-well plate at 5×10^5 cells per well. After 24 hours, when the cell density reached 60% to 80%, transfection was performed. pNL4-3-Luc-R-E- or pNL4-3-Luc-R-E--IN-mutant plasmid and lentivirus packaging plasmid pMD2.G (Beijing Zoman Bio) were added to the transfection reagent in a certain proportion. Cell transfection was performed according to the instructions of transfection reagent PEI25K (Maokang Biotechnology). After 48 hours, the supernatant was collected, centrifuged at 3000 rpm for 5 minutes, filtered with a 0.45 μm microporous membrane, aliquoted, and stored at −80° C. for later use. In HEK293T cells, the pseudovirus titer was determined based on luciferase activity.
(§8) Determination of antiviral activity of compounds: In a 96-well V-bottom plate, the compound to be tested was diluted with DMSO semi-logarithmically, and a compound solution 4 times the final concentration was prepared for later use. According to the results of different virus titrations, the virus was diluted with complete culture medium for later use. HEK293T cells were digested with trypsin to obtain a cell suspension of 2×10^5/mL. 50 µl of compound diluent, 50 µl of virus diluent and 100 µl of cell suspension were added successively to a 96-well flat-bottomed plate. The final concentration of the compound was 1000 nM to 0.1 nM. The 96-well plate was incubated in a 37° C., 5% CO2 incubator. After 72 hours, 100 µL of culture supernatant was pipetted out carefully from each well of the 96-well plate, 25 µL of Steady-Glo detection reagent (Promega, Cat #E2550) was added to each well in the dark, and then assayed on a machine (Tecan, Type #Spark).

[6] = test system: HIV-1 integrase R263K pseudovirus; test: Pseudovirus-based assay of anti-HIV-1 activity, R263K strain; assay type: cell-based; settings: HEK-293T, 72 h
Method: as §6, §7, §8

[7] = Test of cytotoxicity of the compound (MT-4 cells, XTT); assay type: cell-based; settings: human
Method: as §5, §1, §2

[8] = test system: HIV-1 integrase G140S/Q148R pseudovirus; test: Pseudovirus-based assay of anti-HIV-1 activity, G140S/Q148R strain; assay type: cell-based; settings: HEK-293T, 72 h
Method: as §6, §7, §8

[9] = test system: HIV-1 integrase E138K pseudovirus; test: Pseudovirus-based assay of anti-HIV-1 activity, E138K strain; assay type: cell-based; settings: HEK-293T, 72 h
Method: as §6, §7, §8

[10] = test system: HIV-1 integrase Q148H pseudovirus; test: Pseudovirus-based assay of anti-HIV-1 activity, Q148H strain; assay type: cell-based; settings: HEK-293T, 72 h
Method: as §6, §7, §8

[11] = test system: WT (wild type) pseudovirus; test: Pseudovirus-based assay of anti-HIV-1 activity, WT strain; assay type: cell-based; settings: HEK-293T, 72 h
Method: as §6, §7, §8

[12] = test system: HIV-1 integrase Y143R/Q148H pseudovirus; test: Pseudovirus-based assay of anti-HIV-1 activity, Y143R/Q148H strain; assay type: cell-based; settings: HEK-293T, 72 h
Method: as §6, §7, §8

[13] = test system: common clinical integrase mutant strains (G140S/Q148R, Q148R/N155H, E138K, Q148H, R263K and Y143R/Q148H); test: Pseudovirus assay, common clinical integrase mutant strains (overall comparison); assay type: cell-based, HIV-1; settings: R263K and Y143R/Q148H pseudoviruses
Method: as §6, §7
Determination of antiviral activity of compounds: In a 96-well V-bottom plate, the compound to be tested was diluted with DMSO semi-logarithmically, and a compound solution 4 times the final concentration was prepared for later use. […]

[14] = test system: HIV-1 clinical isolates (RW/92/009, MW/93/959, UG/92/001); test: Clinical HIV-1 isolates in human PBMC (overall comparison); assay type: cell-based; settings: RW/92/009, MW/93/959, UG/92/001 in human PBMC
Method: as §3, §4

[15] = RW/92/009, human PBMC, 7 days, reverse transcriptase activity in supernatant
[16] = UG/92/001, human PBMC, 7 days, reverse transcriptase activity in supernatant
[17] = MW/93/959, human PBMC, 7 days, reverse transcriptase activity in supernatant
[18] = Human immunodeficiency virus 1, 168 h, RW/92/009, human PBMC, 7 days, reverse transcriptase activity in supernatant
[19] = Human immunodeficiency virus 1, 168 h, UG/92/001, human PBMC, 7 days, reverse transcriptase activity in supernatant
[20] = Human immunodeficiency virus 1, 168 h, MW/93/959, human PBMC, 7 days, reverse transcriptase activity in supernatant
[21] = Human immunodeficiency virus 1, IIIB, MT4, 144 h
[22] = Human immunodeficiency virus 1, PBMC, 168 h

Compound	CC50/EC50 [1]	EC50 [5] [nM]	EC90 [5] [nM]	EC50 [6] [nM]	EC90 [6] [nM]	CC50 at 6 days [7] [nM]	EC50 [8] [nM]	EC90 [8] [nM]	EC50 [9] [nM]	EC90 [9] [nM]	EC50 [10] [nM]	EC90 [10] [nM]	EC50 [11] [nM]	EC90 [11] [nM]	EC50 [12] [nM]	EC90 [12] [nM]	EC50 [1, 21] [nM]	other results
Cc1cn([C@H]2C[C@H](N=[N+]=[N-])[C@@H](CO)O2)c(=O)[nH]c1=O [AZT]	>250	–	–	–	–	–	–	–	–	–	–	–	–	–	–	–	–	EC50 ([1]; MT-4 cells infected by HIV-1IIIB, 6 days, XTT, read-out: EC50): 2 nM; EC50 [2, 15]: 3.58 nM; EC90 [2, 15]: 75.5 nM; CC50 (MT-4 cells): > 500 nM; EC50 [3, 16]: 4.02 nM; EC90 [3, 16]: 62 nM; EC50 [4, 17]: 0.31 nM; EC90 [4, 17]: 38.6 nM
C[C@H]1CO[C@@H]2Cn3cc(C(=O)NCc4ccc(F)cc4F)c(=O)c(O)c3C(=O)N12 [Cabotegravir, cabotegravir]	>41.7	98	> 1000	4.9	58.8	> 100	63.5	301	3.7	24.4	3.6	15.4	3	21.8	4.2	24.8	–	EC50 ([1]; Human immunodeficiency virus 1, MT4, 144 h, MT-4 cells infected by HIV-1IIIB, 6 days, XTT, read-out: EC50): 2.4 nM; EC50 [2, 18]: 0.09 nM; EC90 [2, 18]: 0.59 nM; EC50 [3, 19]: 0.46 nM; EC90 [3, 19]: 2.94 nM; EC50 [4, 20]: 0.06 nM; EC90 [4, 20]: 0.67 nM
O=C(NCc1ccc(F)cc1F)c1cn2c(c(O)c1=O)C(=O)N1[C@@H](C3CC3)CO[C@@H]1C2 [Compound 1]	>32.1	611	> 1000	6.5	58.3	> 100	244	> 1000	5.1	27.1	15.9	105	3.3	29.1	21.3	193	3.12	–
O=C(NCc1ccc(F)cc1F)c1cn2c(c(O)c1=O)C(=O)N1[C@@H](CF)CO[C@@H]1C2 [Compound 2]	>112	82.3	> 1000	2.9	25.1	> 100	42.2	194	2.3	14.1	2.2	12.5	1.8	12.9	3.1	14.1	0.89	EC50 [2, 22]: 0.02 nM; EC90 [2, 22]: 0.4 nM; EC50 [3, 22]: 0.28 nM; EC90 [3, 22]: 1.28 nM; activity compared with cabotegravir [13]: better than that of cabotegravir with significant differences; activity compared with cabotegravir [14]: more active than cabotegravir; EC50 [4, 22]: 0.007 nM; EC90 [4, 22]: 0.37 nM
Cc1nnc(C(=O)NC(C)(C)c2nc(C(=O)NCc3ccc(F)cc3)c(O)c(=O)n2C)o1 [Raltegravir, raltegravir]	–	> 1000	> 1000	7.1	68	–	> 1000	> 1000	8.1	46.2	214	> 1000	5.5	60.7	> 1000	> 1000	–	–
